Assay results reported in patent US20250059180A1 (DONG WHA PHARM. CO., LTD., priority 2022, published 2025).
Read-outs that look alike come from different tables or passages of the source.

Columns and labels:
EZH1 = EZH1 (Homo sapiens, UniProt Q92800); test: AlphaLISA evaluation of inhibitory activity against EZH1; type: biochemical; conditions: DMSO control; for Enzyme inhibition % EZH1 10 nM: test material 10 nM; for Enzyme inhibition % EZH1 5 nM: test material 5 nM
Procedure: (§1) In order to confirm the EZH1 and/or EZH2 activity inhibitory effect of the 1,3-benzodioxole derivative compounds represented by chemical formula I of the present invention, the activity was measured using an AlphaLISA test method.
(§2) The test material dissolved in dimethylsulfoxide (DMSO) was diluted in a test solution (20 mM Tris pH 8.0, 0.1% BSA, 0.01% Triton X-100, 0.5 mM DTT) according to a final treatment concentration (5 nM or 10 nM), mixed with EZH1 and EZH2, respectively, and then added with histone H3 peptide and S-adenosylmethionine (SAM) to initiate an enzyme reaction. An acceptor bead was added thereto after reaction for two hours and subjected to an additional reaction for one hour, after which a donor bead was added thereto. After an additional reaction for 30 minutes, the reaction was completed. Activity was measured using the Magellan program on a Spark10M instrument. DMSO was used as a control group, an inhibition rate of enzyme activity was calculated using the following equation, and the results thereof are shown in Table 1 below.
(§3) Activity inhibition rate (%)=(1−(Group treated with test material/Control group))*100

EZH2 = EZH2 (Homo sapiens, UniProt Q15910); test: AlphaLISA evaluation of inhibitory activity against EZH2; type: biochemical; conditions: DMSO control; for Enzyme inhibition % EZH2 5 nM: test material 5 nM; for Enzyme inhibition % EZH2 10 nM: test material 10 nM
Procedure: as §1, §2, §3

[1] = system: Pfeiffer cells, lymphoma cells having EZH2 mutation (A677G); test: Proliferation inhibition of cells of hematologic malignancies (CCK-8, 11 days); type: cell-based; conditions: 11 days culture, read-out: Cell proliferation inhibitory effect (IC50)
In short: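 Pfeiffer lymphoma cells (EZH2 A677G) in RPMI1640 with 10% FBS were seeded at 10,000 cells/well and exposed to test material for 11 days, with compound replaced every 3–4 days. Viability was read by CCK-8 absorbance at 450 nm, and IC50 was derived by non-linear regression curve fitting.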

EZH1, sequence (Q92800 whole entry): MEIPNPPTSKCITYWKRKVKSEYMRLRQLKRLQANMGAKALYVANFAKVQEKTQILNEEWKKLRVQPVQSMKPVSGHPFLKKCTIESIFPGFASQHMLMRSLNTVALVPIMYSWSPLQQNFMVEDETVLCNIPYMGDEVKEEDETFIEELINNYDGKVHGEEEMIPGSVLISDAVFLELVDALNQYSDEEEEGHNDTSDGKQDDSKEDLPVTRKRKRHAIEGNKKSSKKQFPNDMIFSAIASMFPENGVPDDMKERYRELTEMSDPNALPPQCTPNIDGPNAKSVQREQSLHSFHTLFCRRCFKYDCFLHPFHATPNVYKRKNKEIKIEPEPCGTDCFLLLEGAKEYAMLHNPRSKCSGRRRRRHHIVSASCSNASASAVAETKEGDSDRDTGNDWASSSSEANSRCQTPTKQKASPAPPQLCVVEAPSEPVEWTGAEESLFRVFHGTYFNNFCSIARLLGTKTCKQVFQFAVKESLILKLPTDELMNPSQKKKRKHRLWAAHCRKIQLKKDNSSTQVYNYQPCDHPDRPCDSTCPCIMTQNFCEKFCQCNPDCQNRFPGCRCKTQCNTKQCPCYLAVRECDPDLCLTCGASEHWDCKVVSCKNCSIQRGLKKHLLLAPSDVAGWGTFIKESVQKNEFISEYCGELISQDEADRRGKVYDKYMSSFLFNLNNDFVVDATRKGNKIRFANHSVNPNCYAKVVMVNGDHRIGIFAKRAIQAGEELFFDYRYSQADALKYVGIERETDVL
EZH1, sequence (O75530 whole entry partner): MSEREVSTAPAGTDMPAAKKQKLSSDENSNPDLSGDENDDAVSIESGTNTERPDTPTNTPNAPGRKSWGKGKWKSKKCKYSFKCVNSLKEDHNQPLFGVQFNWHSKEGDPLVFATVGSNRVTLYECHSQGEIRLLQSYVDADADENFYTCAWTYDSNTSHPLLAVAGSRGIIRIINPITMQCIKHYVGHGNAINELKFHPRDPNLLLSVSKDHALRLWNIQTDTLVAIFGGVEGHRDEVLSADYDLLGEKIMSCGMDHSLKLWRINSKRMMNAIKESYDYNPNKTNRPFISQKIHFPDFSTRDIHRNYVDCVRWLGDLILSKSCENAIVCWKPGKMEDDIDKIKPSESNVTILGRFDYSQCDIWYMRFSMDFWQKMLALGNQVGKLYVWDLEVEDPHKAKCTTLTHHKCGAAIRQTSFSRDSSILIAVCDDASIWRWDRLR
EZH1, sequence (Q15022 whole entry partner): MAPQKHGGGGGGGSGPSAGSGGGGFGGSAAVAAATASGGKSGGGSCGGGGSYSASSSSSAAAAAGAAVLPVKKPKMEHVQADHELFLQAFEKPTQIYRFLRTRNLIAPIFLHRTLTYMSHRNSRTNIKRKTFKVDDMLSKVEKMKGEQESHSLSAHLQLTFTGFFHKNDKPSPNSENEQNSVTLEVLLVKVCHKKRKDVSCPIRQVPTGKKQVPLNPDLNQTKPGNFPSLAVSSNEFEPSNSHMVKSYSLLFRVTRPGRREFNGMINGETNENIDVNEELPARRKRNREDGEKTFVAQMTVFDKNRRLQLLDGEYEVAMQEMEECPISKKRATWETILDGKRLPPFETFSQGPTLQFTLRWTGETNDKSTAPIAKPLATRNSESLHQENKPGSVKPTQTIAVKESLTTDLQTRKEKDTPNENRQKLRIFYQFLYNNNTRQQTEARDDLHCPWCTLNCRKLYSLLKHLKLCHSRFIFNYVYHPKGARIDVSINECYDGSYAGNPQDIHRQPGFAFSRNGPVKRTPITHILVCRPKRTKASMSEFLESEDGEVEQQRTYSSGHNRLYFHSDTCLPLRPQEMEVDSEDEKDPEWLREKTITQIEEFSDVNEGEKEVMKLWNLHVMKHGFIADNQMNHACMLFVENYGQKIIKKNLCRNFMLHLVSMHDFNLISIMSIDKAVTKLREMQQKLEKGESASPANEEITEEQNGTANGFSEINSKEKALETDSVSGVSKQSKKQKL
EZH2, sequence (Q15910 whole entry): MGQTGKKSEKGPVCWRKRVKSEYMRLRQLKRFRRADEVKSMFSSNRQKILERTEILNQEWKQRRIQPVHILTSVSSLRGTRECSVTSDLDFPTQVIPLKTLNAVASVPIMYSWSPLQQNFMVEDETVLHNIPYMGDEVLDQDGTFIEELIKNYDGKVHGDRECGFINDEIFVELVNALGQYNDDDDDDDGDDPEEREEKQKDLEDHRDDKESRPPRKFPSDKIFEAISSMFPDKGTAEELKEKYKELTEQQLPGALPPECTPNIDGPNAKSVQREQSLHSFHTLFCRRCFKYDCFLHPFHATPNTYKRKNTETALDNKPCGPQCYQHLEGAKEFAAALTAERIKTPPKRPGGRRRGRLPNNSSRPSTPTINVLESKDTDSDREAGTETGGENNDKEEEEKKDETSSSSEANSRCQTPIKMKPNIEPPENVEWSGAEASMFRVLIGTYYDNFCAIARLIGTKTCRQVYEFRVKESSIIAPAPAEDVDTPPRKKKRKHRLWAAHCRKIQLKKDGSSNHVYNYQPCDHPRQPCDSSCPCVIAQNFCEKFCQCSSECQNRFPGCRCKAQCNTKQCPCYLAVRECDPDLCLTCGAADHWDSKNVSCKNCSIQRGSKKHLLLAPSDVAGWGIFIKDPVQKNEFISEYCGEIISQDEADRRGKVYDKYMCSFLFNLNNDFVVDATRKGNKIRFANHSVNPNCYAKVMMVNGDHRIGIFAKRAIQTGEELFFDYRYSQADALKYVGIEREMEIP
EZH2, sequence (O75530 whole entry partner): as the sequence (O75530 whole entry partner) above
EZH2, sequence (Q15022 whole entry partner): as the sequence (Q15022 whole entry partner) above

Enzyme inhibition % EZH1 10 nM (EZH1)	Enzyme inhibition % EZH2 5 nM (EZH2)	Enzyme inhibition % EZH2 10 nM (EZH2)	IC50 ([1]; Homo sapiens, Pfeiffer, 264 h)	Enzyme inhibition % EZH1 5 nM (EZH1)	IC50 [1]	SMILES
19.9%	37.0%	82.6%	≤ 10 nM	–	–	CSc1cc(C)[nH]c(=O)c1CNC(=O)c1cc(-c2ccc(N3C[C@@H](C)O[C@@H](C)C3)nc2)c2c(c1C)OC(C)([C@H]1CC[C@H](N3CC(OCCCC(F)(F)F)C3)CC1)O2 (some centres unmarked) [Compound 104]
87.9%	98.2%	99.6%	–	71.9%	≤ 10 nM	CSc1cc(C)[nH]c(=O)c1CNC(=O)c1cc(-c2cnc(N3CCOCC3)nc2)c2c(c1C)OC(C)(C1CCN(CC(F)(F)F)CC1)O2 (centres unmarked) [Compound 69, 2,4-dimethyl-N-((6-methyl-4-(methylthio)-2-oxo-1,2-dihydropyridin-3-yl)methyl)-7-(2-morpholinopyrimidin-5-yl)-2-(1-(2,2,2-trifluoro)piperidin-4-yl)benzo[d][1,3]dioxole-5-carboxamide]
81.8%	93.6%	99.4%	–	66.9%	≤ 10 nM	CSc1cc(C)[nH]c(=O)c1CNC(=O)c1cc(-c2ccc(N3CCOCC3)nc2)c2c(c1C)OC(C)(C1CCN(CC(F)(F)F)CC1)O2 (centres unmarked) [Compound 62, 2,4-dimethyl-N-((6-methyl-4-(methylthio)-2-oxo-1,2-dihydropyridin-3-yl)methyl)-7-(6-morpholinopyridin-3-yl)-2-(1-(2,2,2-trifluoro)piperidin-4-yl)benzo[d][1,3]dioxole-5-carboxamide]
